Laboratory results taken from US20100291605A1, “ASSAYS FOR S-ADENOSYLMETHIONINE-DEPENDENT […]” (WASHINGTON STATE UNIVERSITY RESEARCH FOUNDATION, priority 2006, published 2010).
Each block holds one molecule with its values, some of them ahead of it. Where no end group is shown, it is not given here. acyl = not defined here

Tests used:
PRMT1 = PRMT1 (Rattus norvegicus, UniProt Q63009); experiment: enzyme-coupled continuous spectrophotometric methyltransferase assay (265 nm); conditions: for Vmax, R3 compared with JMH1: peptide substrates of PRMT1, in words
adenine deaminase = adenine deaminase (Bacillus subtilis, UniProt P39761); type: biochemical; conditions: hypoxanthine 3.5 μM to 142 μM, in the presence of 13.3 μM adenine
Chain of adenine deaminase (P39761 whole entry): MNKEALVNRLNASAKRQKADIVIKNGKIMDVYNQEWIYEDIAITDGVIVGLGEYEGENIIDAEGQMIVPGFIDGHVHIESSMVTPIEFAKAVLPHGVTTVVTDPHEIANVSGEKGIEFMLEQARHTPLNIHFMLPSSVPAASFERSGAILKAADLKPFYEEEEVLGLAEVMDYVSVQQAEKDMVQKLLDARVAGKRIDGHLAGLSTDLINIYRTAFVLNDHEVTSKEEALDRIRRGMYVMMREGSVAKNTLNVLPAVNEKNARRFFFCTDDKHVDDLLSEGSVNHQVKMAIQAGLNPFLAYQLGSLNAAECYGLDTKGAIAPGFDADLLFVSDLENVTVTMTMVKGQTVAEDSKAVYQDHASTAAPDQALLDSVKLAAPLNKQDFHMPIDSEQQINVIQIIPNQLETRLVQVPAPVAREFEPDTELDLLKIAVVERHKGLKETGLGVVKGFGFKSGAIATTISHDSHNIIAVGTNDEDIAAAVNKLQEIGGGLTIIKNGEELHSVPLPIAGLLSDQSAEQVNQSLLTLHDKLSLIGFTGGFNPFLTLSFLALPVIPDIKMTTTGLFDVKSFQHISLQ

Chain of PRMT1 (Q63009 whole entry): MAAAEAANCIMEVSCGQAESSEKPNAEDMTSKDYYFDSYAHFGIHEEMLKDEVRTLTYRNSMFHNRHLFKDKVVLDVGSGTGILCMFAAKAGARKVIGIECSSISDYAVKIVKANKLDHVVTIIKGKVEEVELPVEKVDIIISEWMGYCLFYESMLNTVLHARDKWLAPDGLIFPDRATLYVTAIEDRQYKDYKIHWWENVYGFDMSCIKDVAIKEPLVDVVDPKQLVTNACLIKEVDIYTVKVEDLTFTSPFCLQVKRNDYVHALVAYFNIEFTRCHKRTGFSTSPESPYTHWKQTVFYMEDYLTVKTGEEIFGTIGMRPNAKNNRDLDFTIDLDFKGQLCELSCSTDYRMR

rate, continuous spectrophotometric assay (PRMT1; 2 μM PRMT1, 211 μM R3): 5.1±0.2 μM AdoHyc formed/min
Vmax, R3 compared with JMH1 (PRMT1): similar
Molecule: acylGGRGGFGGRGGFGGRGGFG (SEQ ID NO:3) [R3]

Vmax, R3 compared with JMH1 (PRMT1): similar
Molecule: acylKGGFGGRGGFGGK (SEQ ID NO:2) (acyl-KGGFGGRGGFGGK; reading uncertain; also: N-terminal acyl group not given here, printed as acylKGGFGGRGGFGGK) [JMH1]

Molecule: O=c1[nH]cnc2nc[nH]c12 [hypoxanthine]
inhibition of adenine deaminase (adenine deaminase): did not inhibit

Vmax (PRMT1; peptide substrate of PRMT1): 5.7 ± 0.2 µM/min
Molecule: acylSGRGKGGKGLGKGGAK (SEQ ID NO:1) [H4 peptide]
